# System: symmetric dimethylation of arginine (SDMA) of PRMT5 substrates in MCF-7 cells
# Test: PRMT5 Cell Target Engagement (TE) Assay
# Type: cell-based
# Settings: Homo sapiens, MCF7, 72 h; MCF-7 cells treated for 3 days; nuclear SDMA by high content imaging; top concentration 10000 nM
# Outline: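 MCF-7 cells treated 3 days at 37 °C with 10-point 1:3 titration from 10000 nM top. Fixed cells stained with anti-SDMA antibody plus Alexa488 secondary and Hoechst; nuclear fluorescence quantified by high-content imaging versus DMSO wells. EC50 from 4-parameter fit of percent fluorescence vs log concentration.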
row,EC50 [nM],Compound
1,1.1,"Nc1nc2cc(C[C@@H]3CC[C@@]4(O)[C@@H]3O[C@@H](n3cc(F)c5c(N)ncnc53)[C@@H]4O)ccc2cc1Cl [Example 68, (2R,3R,3aS,6S,6aR)-6-((2-amino-3-chloroquinolin-7-yl)methyl)-2-(4-amino-5-fluoro-7H-pyrrolo[2,3-d]pyrimidin-7-yl)hexahydro-3aH-cyclopenta[b]furan-3,3a-diol]"
2,17,"C[C@@]1(O)[C@@H](CCc2ccc3cc(Br)c(N)nc3c2)O[C@@H](n2ccc3c(N)ncnc32)[C@@H]1O [Example 14, (2R,3S,4R,5R)-2-(2-(2-amino-3-bromoquinolin-7-yl)ethyl)-5-(4-amino-7H-pyrrolo[2,3-d]pyrimidin-7-yl)-3-methyltetrahydrofuran-3,4-diol]"
3,103,"C[C@]1(O)[C@@H](O)[C@H](n2ccc3c(N)ncnc32)C[C@]1(O)CCc1ccc2cc(Br)c(N)nc2c1 [Example 118, (1R,2S,3S,4R)-1-(2-(2-amino-3-bromoquinolin-7-yl)ethyl)-4-(4-amino-7H-pyrrolo[2,3-d]pyrimidin-7-yl)-2-methylcyclopentane-1,2,3-triol]"
4,22.9,"Nc1nc2cc(C[C@@H]3CC[C@@]4(O)[C@@H]3O[C@@H](n3ccc5c(C6CC6)ncnc53)[C@@H]4O)ccc2cc1Br [Example 87, (2R,3R,3aS,6S,6aR)-6-((2-amino-3-bromoquinolin-7-yl)methyl)-2-(4-cyclopropyl-7H-pyrrolo[2,3-d]pyrimidin-7-yl)hexahydro-3aH-cyclopenta[b]furan-3,3a-diol]"
5,0.3,"Cc1cn([C@@H]2C[C@@H]3[C@H](Cc4ccc5cc(Cl)c(N)nc5c4)CC[C@]3(O)[C@H]2O)c2ncnc(N)c12 [Example 39, (1S,2R,3aR,4S,6aR)-4-((2-amino-3-chloroquinolin-7-yl)methyl)-2-(4-amino-5-methyl-7H-pyrrolo[2,3-d]pyrimidin-7-yl)hexahydropentalene-1,6a(1H)-diol]"
6,8.1,"Nc1nc2cc(C[C@H]3[C@H]4O[C@@H](n5ccc6c(N)ncnc65)[C@H](O)[C@@]4(O)C[C@@H]3F)ccc2cc1F [Example 54, (2R,3R,3aS,5S,6S,6aR)-6-[(2-amino-3-fluoroquinolin-7-yl)methyl]-2-(4-amino-7H-pyrrolo[2,3-d]pyrimidin-7-yl)-5-fluorohexahydro-3aH-cyclopenta[b]furan-3,3a-diol]"
7,4.4,"Cc1nc(N)nc2c1ccn2[C@@H]1O[C@@H]2[C@@H](Oc3ccc4cc(Br)c(N)nc4c3)CC[C@]2(O)[C@H]1O [Example 114, (2R,3R,3aS,6S,6aR)-6-((2-amino-3-bromoquinolin-7-yl)oxy)-2-(2-amino-4-methyl-7H-pyrrolo[2,3-d]pyrimidin-7-yl)hexahydro-3aH-cyclopenta[b]furan-3,3a-diol]"
8,7.5,"Cc1ncnc2c1c(F)cn2[C@@H]1O[C@@H]2[C@H](Cc3ccc4cc(Br)c(N)nc4c3)CC[C@]2(O)[C@H]1O [Example 84, (2R,3R,3aS,6S,6aR)-6-((2-amino-3-bromoquinolin-7-yl)methyl)-2-(5-fluoro-4-methyl-7H-pyrrolo[2,3-d]pyrimidin-7-yl)hexahydro-3aH-cyclopenta[b]furan-3,3a-diol]"
9,1.4,"Nc1nc2cc(C[C@@H]3CC[C@@]4(O)[C@@H]3O[C@@H](n3ccc5c(N)nc(Cl)nc53)[C@@H]4O)ccc2cc1Cl [Example 47, (2R,3R,3aS,6S,6aR)-2-(4-amino-2-chloro-7H-pyrrolo[2,3-d]pyrimidin-7-yl)-6-[(2-amino-3-chloroquinolin-7-yl)methyl]hexahydro-3aH-cyclopenta[b]furan-3,3a-diol]"
10,1,"Cc1cn([C@@H]2O[C@@H]3[C@H](Cc4ccc5cc(Br)c(N)nc5c4)CC[C@]3(O)[C@H]2O)c2ncnc(N)c12 [Example 70, (2R,3R,3aS,6S,6aR)-6-((2-amino-3-bromoquinolin-7-yl)methyl)-2-(4-amino-5-methyl-7H-pyrrolo[2,3-d]pyrimidin-7-yl)hexahydro-3aH-cyclopenta[b]furan-3,3a-diol 2,2,2-trifluoroacetate]"
11,2330,"C[C@]1(COc2ccc3cc(Br)c(N)nc3c2)C[C@@H](n2ccc3c(N)ncnc32)[C@H](O)[C@]1(C)O [Example 111, (1R,2S,3R,5R)-5-(((2-amino-3-bromoquinolin-7-yl)oxy)methyl)-3-(4-amino-7H-pyrrolo[2,3-d]pyrimidin-7-yl)-1,5-dimethylcyclopentane-1,2-diol]"
12,0.8,"Cc1cn([C@@H]2C[C@@H]3[C@H](Cc4cc(F)c5cc(F)c(N)nc5c4)CC[C@]3(O)[C@H]2O)c2ncnc(N)c12 [Example 35, (1S,2R,3aR,4S,6aR)-4-[(2-amino-3,5-difluoroquinolin-7-yl)methyl]-2-(4-amino-5-methyl-7H-pyrrolo[2,3-d]pyrimidin-7-yl)hexahydropentalene-1,6a(1H)-diol]"
13,10000,"Cc1ncnc2c1ccn2[C@@H]1O[C@@H]2[C@H](Oc3ccc4cc(Br)c(N)nc4c3)CC[C@]2(O)[C@H]1O [Example 129, (2R,3R,3aS,6R,6aR)-6-((2-amino-3-bromoquinolin-7-yl)oxy)-2-(4-methyl-7H-pyrrolo[2,3-d]pyrimidin-7-yl)hexahydro-3aH-cyclopenta[b]furan-3,3a-diol]"
14,1.2,"Nc1nc2cc(C[C@@H]3CC[C@@]4(O)[C@@H]3O[C@@H](n3ccc5c(N)ncnc53)[C@@H]4O)ccc2cc1Cl [Example 67, (2R,3R,3aS,6S,6aR)-6-((2-amino-3-chloroquinolin-7-yl)methyl)-2-(4-amino-7H-pyrrolo[2,3-d]pyrimidin-7-yl)hexahydro-3aH-cyclopenta[b]furan-3,3a-diol]"
15,1,"Nc1ncnc2c1ccn2[C@@H]1O[C@@H]2[C@@H](Oc3ccc4ccc(NCC5CC5)nc4c3)CC[C@]2(O)[C@H]1O [Example 58, (2R,3R,3aS,6S,6aR)-2-(4-amino-7H-pyrrolo[2,3-d]pyrimidin-7-yl)-6-((2-((cyclopropylmethyl)amino)quinolin-7-yl)oxy)hexahydro-3aH-cyclopenta[b]furan-3,3a-diol]"
16,258,"Cc1ncnc2c1ccn2[C@@H]1O[C@@H]2[C@H](Cc3cnc4cc(F)c(N)nc4c3)CC[C@]2(O)[C@H]1O [Example 25, (2R,3R,3aS,6S,6aR)-6-((6-amino-7-fluoro-1,5-naphthyridin-3-yl)methyl)-2-(4-methyl-7H-pyrrolo[2,3-d]pyrimidin-7-yl)hexahydro-3aH-cyclopenta[b]furan-3,3a-diol, 3HCl]"
17,8.6,"Nc1nc2cc(C[C@@H]3CC[C@@]4(O)[C@@H]3O[C@@H](n3ccc5c(N)ncnc53)[C@@H]4O)ccc2cc1C(F)(F)F [Example 76, (2R,3R,3aS,6S,6aR)-6-((2-amino-3-(trifluoromethyl)quinolin-7-yl)methyl)-2-(4-amino-7H-pyrrolo[2,3-d]pyrimidin-7-yl)hexahydro-3aH-cyclopenta[b]furan-3,3a-diol]"
18,0.5,"C[C@]1(CCc2ccc3cc(Br)c(N)nc3c2)C[C@@H](n2ccc3c(N)ncnc32)[C@H](O)[C@@H]1O [Example 15, (1S,2R,3S,5R)-3-[2-(2-amino-3-bromo-7-quinolinyl)ethyl]-5-(4-amino-7H-pyrrolo[2,3-d]pyrimidin-7-yl)-3-methyl-1,2-cyclopentanediol]"
19,12.4,"C[C@@]1(O)[C@@H](CCc2ccc3cc(Br)c(N)nc3c2)C[C@@H](n2ccc3c(N)ncnc32)[C@@H]1O [Example 103, (1R,2S,3R,5S)-5-(2-(2-amino-3-bromoquinolin-7-yl)ethyl)-3-(4-amino-7H-pyrrolo[2,3-d]pyrimidin-7-yl)-1-methylcyclopentane-1,2-diol]"
20,2.9,"Nc1nc2cc(C[C@@H]3CC[C@@]4(O)[C@@H]3C[C@@H](n3ccc5c(N)ncnc53)[C@@H]4O)ccc2cc1Br [Example 41, (1S,2R,3aR,4S,6aR)-4-((2-amino-3-bromoquinolin-7-yl)methyl)-2-(4-amino-7H-pyrrolo[2,3-d]pyrimidin-7-yl)hexahydropentalene-1,6a (1H)-diol 2,2,2-trifluoroacetate]"
21,202,"C[C@@]1(O)[C@@H](COc2ccc3cccnc3c2)O[C@@H](n2ccc3c(N)ncnc32)[C@@H]1O [Example 99, (2R,3S,4R,5R)-5-(4-amino-7H-pyrrolo[2,3-d]pyrimidin-7-yl)-3-methyl-2-((quinolin-7-yloxy)methyl)tetrahydrofuran-3,4-diol]"
22,20,"C#C[C@@]1(O)[C@@H](COc2ccc3cc(Br)c(N)nc3c2)O[C@@H](n2ccc3c(N)ncnc32)[C@@H]1O [Example 3, (2R,3S,4R,5R)-2-(((2-amino-3-bromoquinolin-7-yl)oxy)methyl)-5-(4-amino-7H-pyrrolo[2,3-d]pyrimidin-7-yl)-3-ethynyltetrahydrofuran-3,4-diol]"
23,1.3,"Nc1nc2cc(C[C@@H]3CC[C@@]4(O)[C@@H]3O[C@@H](n3cc(F)c5c(N)ncnc53)[C@@H]4O)cc(F)c2cc1F [Example 24, (2R,3R,3aS,6S,6aR)-6-((2-amino-3,5-difluoroquinolin-7-yl)methyl)-2-(4-amino-5-fluoro-7H-pyrrolo[2,3-d]pyrimidin-7-yl)hexahydro-3aH-cyclopenta[b]furan-3,3a-diol]"
24,186,"Nc1nc2cc(O[C@H]3CC[C@@]4(O)[C@@H]3O[C@@H](n3ccc5c(CO)ncnc53)[C@@H]4O)ccc2cc1Br [Example 77, (2R,3R,3aS,6S,6aR)-6-[(2-amino-3-bromoquinolin-7-yl)oxy]-2-[4-(hydroxymethyl)-7H-pyrrolo[2,3-d]pyrimidin-7-yl]hexahydro-3aH-cyclopenta[b]furan-3,3a-diol]"
25,1.8,"Cc1ncnc2c1ccn2[C@@H]1O[C@@H]2[C@@H](Oc3ccc4ccc(N)nc4c3)CC[C@]2(O)[C@H]1O [Example 113, (2R,3R,3aS,6S,6aR)-6-((2-aminoquinolin-7-yl)oxy)-2-(4-methyl 7H-pyrrolo[2,3-d]pyrimidin-7-yl)hexahydro-2H-cyclopenta[b]furan-3,3a-diol]"
26,131,"C[C@@]1(O)[C@@H](COc2ccc3cc(Br)c(N)nc3c2)O[C@@H](n2ccc3c(Cl)ncnc32)[C@@H]1O [Example 11, (2R,3S,4R,5R)-2-{[(2-amino-3-bromoquinolin-7-yl)oxy]methyl}-5-(4-chloro-7H-pyrrolo[2,3-d]pyrimidin-7-yl)-3-methyltetrahydrofuran-3,4-diol]"

# Source: US12173026B2, “PRMT5 inhibitors” (Merck Sharp & Dohme LLC, priority 2018, dated 2024)
